Tested on: K24384-001-R-PDC complex spheroids, viability
Assay: Anticancer human tumor K24384-001-R-PDC patient-derived pancreatic adenocarcinoma cell line growth inhibition [GQUAD]
Conditions: for IC50: curve of first compound; for viability, T/C: stronger effect = lower value
Description: DNA G-quadruplex Stabilizer Agents in Combinations in Complex Spheroids
A high-throughput screen of multi-cell type tumor spheroids was designed to identify active combinations of DNA G-quadruplex stabilizer agents and targeted small molecules. Complex spheroids include a stromal component modeled by human endothelial cells (HUVEC) and fibroblasts modeled by human mesenchymal stem cells (MSCs). The concentration ranges selected for each drug and investigational agent were based upon clinically achievable concentrations if the clinical Cmax of the agent was known.
Compounds. The drugs and investigational agents: pidnarulex (CX-5461; NSC782164), APTO-253 (NSC789042), BRACO-19 (NSC847499), peposertib (NSC802822), ceralasertib (NSC780249), elimusertib (NSC800525), camonsertib (NSC841442), AZD-1390 (NSC803789), olaparib (NSC753686), talazoparib (NSC767125), ART-558 (NSC835418), sotorasib (NSC818433), MRTX-1133 (NSC836407), SN-38 (NSC673596), topotecan (NSC609699), etoposide (NSC141540), doxorubicin (NSC123127), gemcitabine (NSC613327), 5-fluorouracil (NSC19893), paclitaxel (NSC125973), vemurafenib (NSC761431), panobinostat (NSC761190), R-306465 (JNJ-16241199; NSC773264), adavosertib (NSC754352), TP-3654 (NSC805149), carboplatin (NSC241240), KSQ-4279 (NSC840948), and staurosporine (NSC755774) were obtained from the National Cancer Institute (NCI) Developmental Therapeutics Program Chemical Repository (34). The FDA-approved anticancer drug set is available from the NCI Developmental Therapeutics Program. […] The stock solutions were prepared in dimethyl sulfoxide (DMSO, Sigma-Aldrich, St. Louis, MO, cat. D2650) at 800-fold the tested concentration and stored at -70 degrees C prior to their use. All drugs and investigational agents were tested over a range starting from a high concentration at or near the clinical Cmax and decreasing in half-log increments. If the clinical Cmax for an agent had not been determined, the highest concentration tested was 10 microM.
2.3 Cell Culture. All cells were maintained in an incubator at 37 degrees C and 5% CO2 with 95% humidity. The PDC lines were cultured according to standard operating procedures established by the NCI PDMR. All PDCs were thawed and cultured in Matrigel-coated flasks prepared with a working solution of 1X Ham's F-12 nutrient mix, without supplementation (Invitrogen, cat. 11765054), 100 U/mL penicillin-streptomycin (Invitrogen, cat. 15140122), and 2.5% Matrigel (Corning Inc., cat. 354248) for the first three passages. The 857933-349-R-J2-PDC line was cultured in 6C/Colon 1B media, which includes advanced DMEM/F-12 (Thermo Fisher Scientific, cat. 12634028), 10 mM HEPES (Thermo Fisher Scientific, cat. 15630080), 1X GlutaMAX supplement (Thermo Fisher Scientific, cat. 35050061), 0.1 mg/mL primocin (InvivoGen, cat. ant-pm-2), 10% defined fetal bovine serum, heat inactivated (HyClone Laboratories Inc., cat. SH30070.03HI), 50% L-WRN conditioned media (ATCC, cat. CRL-3276), 1.25 mM N-Acetyl-L-cysteine (Sigma-Aldrich, cat. A9165), 10 mM nicotinamide (Sigma-Aldrich, cat. N0636), 1X B-27 supplement (Thermo Fisher Scientific, cat. 17504044), 1X N-2 supplement (Thermo Fisher Scientific, cat. 17502048), 10 microM Y-27632 dihydrochloride (Tocris Bioscience, cat. 1254), and 50 ng/mL human EGF recombinant protein (Thermo Fisher Scientific, cat. PHG0311). The 485176-168-R4-J1-PDC line was cultured in Panc media, which includes all 6C/Colon 1B media components plus 100 ng/mL human FGF-10 (Thermo Fisher Scientific, cat. 100-26), 500 nM SB-431542 (Selleckchem, cat. S1067), and gastrin (Tocris, cat. 3006).
[…]

[1] = second compound 0.0316 µM, first compound 0.0316 µM
[2] = second compound 0.0316 µM, first compound 0.1 µM
[3] = second compound 0.0316 µM, first compound 0.316 µM
[4] = second compound 0.0316 µM, first compound 1 µM
[5] = second compound 0.0316 µM, first compound 3.16 µM
[6] = second compound 0.0316 µM, first compound 10 µM
[7] = second compound 0.1 µM, first compound 0.0316 µM
[8] = second compound 0.1 µM, first compound 0.1 µM
[9] = second compound 0.1 µM, first compound 0.316 µM
[10] = second compound 0.1 µM, first compound 1 µM
[11] = second compound 0.1 µM, first compound 3.16 µM
[12] = second compound 0.1 µM, first compound 10 µM
[13] = second compound 0.316 µM, first compound 0.0316 µM
[14] = second compound 0.316 µM, first compound 0.1 µM
[15] = second compound 0.316 µM, first compound 0.316 µM
[16] = second compound 0.316 µM, first compound 1 µM
[17] = second compound 0.316 µM, first compound 3.16 µM
[18] = second compound 0.316 µM, first compound 10 µM
[19] = second compound 1 µM, first compound 0.0316 µM
[20] = second compound 1 µM, first compound 0.1 µM
[21] = second compound 1 µM, first compound 0.316 µM
[22] = second compound 1 µM, first compound 1 µM
[23] = second compound 1 µM, first compound 3.16 µM
[24] = second compound 1 µM, first compound 10 µM
[25] = second compound 3.16 µM, first compound 0.0316 µM
[26] = second compound 3.16 µM, first compound 0.1 µM
[27] = second compound 3.16 µM, first compound 0.316 µM
[28] = second compound 3.16 µM, first compound 1 µM
[29] = second compound 3.16 µM, first compound 3.16 µM
[30] = second compound 3.16 µM, first compound 10 µM
[31] = second compound 10 µM, first compound 0.0316 µM
[32] = second compound 10 µM, first compound 0.1 µM
[33] = second compound 10 µM, first compound 0.316 µM
[34] = second compound 10 µM, first compound 1 µM
[35] = second compound 10 µM, first compound 3.16 µM
[36] = second compound 10 µM, first compound 10 µM
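Note: spheroids exposed to compounds for seven days.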

In the case of CC(C)n1c(=O)n(C)c2cnc3cc(F)c(-c4ccc(OCCCN5CCCCC5)nc4)cc3c21 + CN(C)c1ccc(Nc2c3ccc(NC(=O)CCN4CCCC4)cc3nc3cc(NC(=O)CCN4CCCC4)ccc23)cc1, the IC50 (second compound 0.0316 µM) is reported as over 10 µM, the IC50 (second compound 0.1 µM) is reported as over 10 µM and the IC50 (second compound 0.316 µM) is reported as over 10 µM. The IC50 (second compound 1 µM) was over 10 µM, the IC50 (second compound 3.16 µM) was 9.51 µM and the IC50 (second compound 10 µM) was 0.622 µM. For the same compound, the viability, T/C [1] was 97.1%, the viability, T/C [2] was 82.6% and the viability, T/C [3] was 109%. It also gave a viability, T/C [4] of 116%, a viability, T/C [5] of 119% and a viability, T/C [6] of 84.1%. It also gave a viability, T/C [7] of 85.7%, a viability, T/C [8] of 101% and a viability, T/C [9] of 121%. For the same compound, the viability, T/C [10] was 99.4%, the viability, T/C [11] was 122% and the viability, T/C [12] was 79%. It also gave a viability, T/C [13] of 80.5%, a viability, T/C [14] of 97.2% and a viability, T/C [15] of 109%. The viability, T/C [16] was 110%, the viability, T/C [17] was 129% and the viability, T/C [18] was 86.9%. It also gave a viability, T/C [19] of 77.9%, a viability, T/C [20] of 88.7% and a viability, T/C [21] of 92.8%. The viability, T/C [22] was 118%, the viability, T/C [23] was 109% and the viability, T/C [24] was 67.3%. It also gave a viability, T/C [25] of 90.2%, a viability, T/C [26] of 89.2% and a viability, T/C [27] of 105%. The viability, T/C [28] was 95.7%, the viability, T/C [29] was 78.2% and the viability, T/C [30] was 48.7%. For the same compound, the viability, T/C [31] was 69.8%, the viability, T/C [32] was 70.5% and the viability, T/C [33] was 55.9%. For the same compound, the viability, T/C [34] was 44.7%, the viability, T/C [35] was 31% and the viability, T/C [36] was 21.5%.
CC1COCCN1c1cc(-c2ccnn2C)c2ccnc(-c3ccn[nH]3)c2n1 (centres undefined) + CN(C)c1ccc(Nc2c3ccc(NC(=O)CCN4CCCC4)cc3nc3cc(NC(=O)CCN4CCCC4)ccc23)cc1 gave an IC50 (second compound 0.0316 µM) of 0.0722 µM, an IC50 (second compound 0.1 µM) of 0.0891 µM and an IC50 (second compound 0.316 µM) of 0.131 µM. The IC50 (second compound 1 µM) was 0.111 µM, the IC50 (second compound 3.16 µM) was 0.0883 µM and the IC50 (second compound 10 µM) was 0.113 µM. For the same compound, the viability, T/C [1] was 69.7%, the viability, T/C [2] was 41.9% and the viability, T/C [3] was 35.4%. For the same compound, the viability, T/C [4] was 24.4%, the viability, T/C [5] was 29.6% and the viability, T/C [6] was 32.9%. It also gave a viability, T/C [7] of 67.6%, a viability, T/C [8] of 48% and a viability, T/C [9] of 27.2%. It also gave a viability, T/C [10] of 24.9%, a viability, T/C [11] of 30.9% and a viability, T/C [12] of 31.9%. It also gave a viability, T/C [13] of 79.2%, a viability, T/C [14] of 56.4% and a viability, T/C [15] of 26.1%. It also gave a viability, T/C [16] of 23.6%, a viability, T/C [17] of 33.6% and a viability, T/C [18] of 32.3%. It also gave a viability, T/C [19] of 78.1%, a viability, T/C [20] of 52% and a viability, T/C [21] of 24.3%. The viability, T/C [22] was 28.8%, the viability, T/C [23] was 34.2% and the viability, T/C [24] was 30.6%. For the same compound, the viability, T/C [25] was 91.4%, the viability, T/C [26] was 44.7% and the viability, T/C [27] was 30.9%. For the same compound, the viability, T/C [28] was 32.5%, the viability, T/C [29] was 30.8% and the viability, T/C [30] was 24.6%. The viability, T/C [31] was 79.6%, the viability, T/C [32] was 49% and the viability, T/C [33] was 43.1%. It also gave a viability, T/C [34] of 30.6%, a viability, T/C [35] of 28.5% and a viability, T/C [36] of 31.7%.
